In paper PMC10331583, “Control of fibrosis with enhanced safety via asymmetric inhibition of prolyl‐tRNA synthetase 1” (EMBO Molecular Medicine, 2023):
Substitutions are numbered along the chain they refer to. pIC50, pKd: −log10 of the molar value. Several values for one entry are separate records, joined by “and”; a condition that tells them apart may be missing. Identical values can stand only once. Like-named read-outs stand apart in the source and are kept apart here.

How the values were obtained:
PARS1 = biological target: T1, PARS1 (Homo sapiens, UniProt P07814); assay: In vitro prolylation assay; type: biochemical
T1 construct: His‐PARS1 (1001–1,512 aa); His; made in house; host or cells: Escherichia coli
T1 sequence (P07814 1001-1512 limits assumed): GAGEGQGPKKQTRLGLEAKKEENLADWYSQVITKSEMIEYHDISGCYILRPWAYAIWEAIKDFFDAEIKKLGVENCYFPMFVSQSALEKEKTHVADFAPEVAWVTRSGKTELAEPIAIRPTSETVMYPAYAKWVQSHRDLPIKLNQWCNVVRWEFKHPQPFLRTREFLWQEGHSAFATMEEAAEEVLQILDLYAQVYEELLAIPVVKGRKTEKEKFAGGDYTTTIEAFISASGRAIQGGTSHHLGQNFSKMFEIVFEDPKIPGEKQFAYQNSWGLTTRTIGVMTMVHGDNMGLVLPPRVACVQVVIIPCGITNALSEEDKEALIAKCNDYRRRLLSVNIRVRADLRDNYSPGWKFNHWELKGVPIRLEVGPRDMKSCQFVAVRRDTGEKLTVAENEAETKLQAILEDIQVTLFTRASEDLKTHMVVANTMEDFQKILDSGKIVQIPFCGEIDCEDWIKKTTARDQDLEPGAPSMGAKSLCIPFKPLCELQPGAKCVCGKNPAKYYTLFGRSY
Description: The enzyme reaction was initiated by the addition of 100 nM purified His‐PARS1 (1001–1,512 aa). After 5 min, the reaction mixture was quenched on Whatman filter paper presoaked with 5% trichloroacetic acid (TCA). The filter papers were washed three times in 5% TCA for 10 min at 4°C and once in 100% ethanol for 10 min. The filter papers were dried, and radioactivity was quantified using liquid scintillation counter (LSC).
After 1 h, the reaction mixture was quenched on Whatman filter paper presoaked with 5% TCA. The filter papers were washed three times in 5% TCA for 10 min at 4°C and once in 100% ethanol for 10 min. The filter papers were dried, and radioactivity was quantified using LSC.

[1] = biological target: T2, PARS1 F1097A/E1123A/R1152L (FA/EA/RL) mutant (Homo sapiens, UniProt P07814, E1123A/F1097A/R1152L); assay: Microscale thermophoresis (MST), PARS1 mutant; type: binding; details: for Fraction bound: single replicates
T2 construct: His‐PARS1 (1001–1,512 aa); made in house; host or cells: Escherichia coli
T2 sequence (P07814 1001-1512 F1097A/E1123A/R1152L): T1 sequence (P07814 1001-1512 limits assumed) with F97A, E123A, R152L

His‐PARS1 = biological target: T3, His‐PARS1 (Homo sapiens, UniProt P07814); assay: Surface plasmon resonance (SPR); type: binding; details: read-out: KD
T3 construct: His‐PARS1 (1001–1,512 aa); made in house; host or cells: Escherichia coli
T3 sequence (P07814 1001-1512 limits assumed): T1 sequence (P07814 1001-1512 limits assumed)

phosphorylation of SMAD2 = assay: Phosphorylation of SMAD2 (TGF‐β pathway), immunoblot; type: cell-based, human; details: TGF‐β 2 ng/ml, 15 h
Description: The levels of proteins were determined by immunoblot assay. […] The lowest concentration at which protein levels started to decrease was normalized by IC50 values for collagen level and used as the y‐axis value. […] The slope and R^2 value were calculated using GraphPad Prism 7.0. […] The activation of the TGF‐β pathway was determined by monitoring the phosphorylation of SMAD2. Immunoblot images are representative of three biologically independent experiments. • The band intensities of the immunoblot images in (C) were quantified using ImageJ (n = 3; One‐way ANOVA; *P < 0.05, **P < 0.01, ***P < 0.001; mean ± SEM). Source data are available online for this figure.

O=C(CC1NCCCC1O)Cn1cnc2cc(Br)c(Cl)cc2c1=O (centres unmarked) [HF, Halofuginone, reference compound]
pIC50 (PARS1; IC50, 1 μM Pro, 5 mM ATP): 7.61
pIC50 (PARS1; IC50, 10 μM Pro, 5 mM ATP): 7.34
pIC50 (PARS1; IC50, 100 μM Pro, 2.5 mM ATP): 6.86
pIC50 (PARS1; IC50, 100 μM Pro, 5 mM ATP): 6.99
pIC50 (PARS1; IC50, 100 μM Pro, 10 mM ATP): 7.00
mode of PARS1 inhibition (PARS1; IC50 at different proline and ATP concentrations): proline‐competitive and ATP‐uncompetitive
Fraction bound, average ([1]; Dose 3.0518 nM): -0.2588
Fraction bound ([1]; Dose 3.0518 nM): -0.0691 and -0.4485
Fraction bound, average ([1]; Dose 6.1035 nM): 0.0816
Fraction bound ([1]; Dose 6.1035 nM): -0.1353 and 0.0688 and 0.3113
Fraction bound, average ([1]; Dose 12.207 nM): -0.0324
Fraction bound ([1]; Dose 12.207 nM): -0.1134 and -0.0549 and 0.0712
Fraction bound, average ([1]; Dose 24.4141 nM): 0.1754
Fraction bound ([1]; Dose 24.4141 nM): 0.2387 and 0.0706 and 0.2171
Fraction bound, average ([1]; Dose 48.8281 nM): 0.0946
Fraction bound ([1]; Dose 48.8281 nM): 0.0297 and 0.0849 and 0.1693
Fraction bound, average ([1]; Dose 97.6563 nM): -0.0450
Fraction bound ([1]; Dose 97.6563 nM): -0.0271 and 0.1069 and -0.2149
Fraction bound, average ([1]; Dose 195.312 nM): 0.0503
Fraction bound ([1]; Dose 195.312 nM): 0.0657 and 0.2487 and -0.1634
Fraction bound, average ([1]; Dose 390.625 nM): -0.0697
Fraction bound ([1]; Dose 390.625 nM): 0.2249 and -0.2797 and -0.1544
Fraction bound, average ([1]; Dose 781.25 nM): 0.0626
Fraction bound ([1]; Dose 781.25 nM): 0.0905 and 0.1699 and -0.0724
Fraction bound, average ([1]; Dose 1562.5 nM): 0.4132
Fraction bound ([1]; Dose 1562.5 nM): 0.3970 and 0.3491 and 0.4935
Fraction bound, average ([1]; Dose 3125 nM): 0.2921
Fraction bound ([1]; Dose 3125 nM): 0.2701 and 0.2589 and 0.3472
Fraction bound, average ([1]; Dose 6250 nM): 0.4932
Fraction bound ([1]; Dose 6250 nM): 0.1312 and 0.6482 and 0.7002
Fraction bound, average ([1]; Dose 12500 nM): 0.6254
Fraction bound ([1]; Dose 12500 nM): 0.5193 and 0.6344 and 0.7226
Fraction bound, average ([1]; Dose 25000 nM): 0.6785
Fraction bound ([1]; Dose 25000 nM): 0.6923 and 0.6116 and 0.7317
Fraction bound, average ([1]; Dose 50000 nM): 0.8304
Fraction bound ([1]; Dose 50000 nM): 1.1885 and 0.7220 and 0.5806
Fraction bound, average ([1]; Dose 100000 nM): 1.0687
Fraction bound ([1]; Dose 100000 nM): 0.9757 and 1.0430 and 1.1875
pKd (His‐PARS1; + ATP (1 mM)): 6.75
pKd (His‐PARS1; - ATP): 4.32
SMAD2 phosphorylation (phosphorylation of SMAD2): reduced SMAD2 phosphorylation
